{"source": "patent US20100226853A1", "about": "(priority 2007, published 2010)", "key": {"B6D2F1 mice": {"system": "B6D2F1 mice", "test": "Acute toxicity in mice", "type": "in vivo", "conditions": "for toxicity in mice: 0.1 mg/kg intravenously, single dose, 14 days observation", "text": "Each group contained three mice. […] There were five males and five females in either control or treatment group. […] Mice were sent for pathology, including complete blood cell count, complete chemistry panel and complete necropsy. Two intact male mice and two intact female mice were also sent and used as references."}, "K562 cells": {"system": "K562 cells", "test": "Cellular proliferation, [3H]thymidine uptake", "type": "cell-based", "conditions": "Homo sapiens, K562, read-out: IC50, K562 cells proliferation", "description": "(§1) The immortalized human hematopoietic Philadelphia chromosome-positive cytokine independent R10(−) M07e^p210 cell line (46) was maintained in Iscove's modified Dulbecco's medium (Life Technologies, Inc., Grand Island, N.Y.) containing 10% FCS (Hyclone, Logan, Utah). The parental M07e megakaryoblastic cell line was a kind gift of Brian Druker and was maintained in the presence of 50 ng/mL kit ligand (SCF) as described (46-47) K562 was obtained from the ATCC. […] Tumor cell cultures were maintained in a humidified atmosphere with 5% CO2 at 37° C. (NuAire).\n(§2) Data points for all assays were obtained in triplicate, and background incorporation from cell-free wells was determined and subtracted from all data points. The data was analyzed using a non-linear regression fit to a sigmoidal dose-response curve using Prism 4 (GraphPad Software, Inc)."}, "[1]": {"system": "R10 neg cells (MO7e/p210^bcr-abl)", "test": "Cellular proliferation, [3H]thymidine uptake", "type": "cell-based", "conditions": "Homo sapiens, read-out: IC50, R10 neg cells (MO7e/p210^bcr-abl) proliferation", "description": "as §1, §2"}, "ABL": {"molecular_target": "ABL (Homo sapiens, UniProt P00519)", "sequence (P00519 whole entry)": "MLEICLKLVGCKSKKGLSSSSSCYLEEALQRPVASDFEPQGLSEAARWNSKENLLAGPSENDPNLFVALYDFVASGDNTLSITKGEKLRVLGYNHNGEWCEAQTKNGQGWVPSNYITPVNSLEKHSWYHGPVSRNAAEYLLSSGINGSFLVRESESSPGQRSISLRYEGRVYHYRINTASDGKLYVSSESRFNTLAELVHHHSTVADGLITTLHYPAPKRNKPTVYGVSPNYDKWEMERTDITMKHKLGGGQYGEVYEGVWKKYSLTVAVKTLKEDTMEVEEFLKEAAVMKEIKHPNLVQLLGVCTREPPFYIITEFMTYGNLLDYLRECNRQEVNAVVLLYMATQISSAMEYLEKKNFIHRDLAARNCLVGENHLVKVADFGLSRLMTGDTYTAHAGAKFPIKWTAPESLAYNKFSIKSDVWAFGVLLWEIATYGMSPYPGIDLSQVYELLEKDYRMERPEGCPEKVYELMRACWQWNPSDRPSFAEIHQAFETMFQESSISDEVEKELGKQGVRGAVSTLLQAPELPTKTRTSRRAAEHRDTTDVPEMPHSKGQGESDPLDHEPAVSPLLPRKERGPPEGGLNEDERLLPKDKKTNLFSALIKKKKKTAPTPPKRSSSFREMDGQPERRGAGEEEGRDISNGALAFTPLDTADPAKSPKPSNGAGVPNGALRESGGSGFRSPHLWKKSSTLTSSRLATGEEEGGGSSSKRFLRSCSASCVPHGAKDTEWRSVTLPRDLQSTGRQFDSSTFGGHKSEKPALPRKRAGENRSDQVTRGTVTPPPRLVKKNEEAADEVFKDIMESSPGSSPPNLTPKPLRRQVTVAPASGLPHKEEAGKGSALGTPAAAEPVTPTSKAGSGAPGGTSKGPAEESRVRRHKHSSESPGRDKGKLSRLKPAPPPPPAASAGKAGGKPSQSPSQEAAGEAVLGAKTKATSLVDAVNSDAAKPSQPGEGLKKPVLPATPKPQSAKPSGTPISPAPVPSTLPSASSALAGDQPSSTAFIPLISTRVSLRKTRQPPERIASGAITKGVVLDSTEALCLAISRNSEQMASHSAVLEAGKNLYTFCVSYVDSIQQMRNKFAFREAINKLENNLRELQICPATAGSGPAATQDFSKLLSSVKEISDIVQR", "test": "QuickScout ELISA kinase panel", "type": "biochemical", "parameters": "purchased Carna Biosciences (QuickScout service)", "text": "(§3) An ELISA-based assay was used in which the phosphorylation of an oligopeptide substrate was detected by an HRP-conjugated anti-p-Tyr (PY20) probe."}, "EphB4": {"molecular_target": "T1, EphB4 (Homo sapiens, UniProt P54760)", "T1 construct": "purchased Carna Biosciences (QuickScout service)", "test": "QuickScout ELISA kinase panel", "type": "biochemical", "conditions": "Compound 5 at 10 nM", "text": "(§4) . […] An ELISA-based assay was used in which the phosphorylation of an oligopeptide substrate was detected by an HRP-conjugated anti-p-Tyr (PY20) probe. […]. The data appears in Table 2 in Example 3."}, "FLT3": {"molecular_target": "T2, FLT3 (Homo sapiens, UniProt P36888)", "T2 construct": "purchased Carna Biosciences (Kobe, Japan), QuickScout service", "test": "QuickScout ELISA kinase panel", "type": "biochemical", "conditions": "Compound 5 at 10 nM", "text": "as §4"}, "MET": {"molecular_target": "T3, MET (Homo sapiens, UniProt P08581)", "T3 construct": "purchased Carna Biosciences (QuickScout service)", "test": "QuickScout ELISA kinase panel", "type": "biochemical", "conditions": "Compound 5 at 10 nM", "text": "as §4"}, "ACK": {"molecular_target": "T4, ACK (Homo sapiens, UniProt Q07912)", "T4 construct": "purchased Carna Biosciences (QuickScout service)", "test": "QuickScout ELISA kinase panel", "type": "biochemical", "conditions": "Compound 5 at 10 nM", "text": "as §4"}, "TYRO3": {"molecular_target": "T5, TYRO3 (Homo sapiens, UniProt Q06418)", "T5 construct": "purchased Carna Biosciences (QuickScout service)", "test": "QuickScout ELISA kinase panel", "type": "biochemical", "conditions": "Compound 5 at 10 nM", "text": "as §4"}, "CSK": {"molecular_target": "T6, CSK (Homo sapiens, UniProt P41240)", "T6 construct": "purchased Carna Biosciences (QuickScout service)", "test": "QuickScout ELISA kinase panel", "type": "biochemical", "conditions": "Compound 5 at 10 nM", "text": "as §4"}, "TEC": {"molecular_target": "T7, TEC (Homo sapiens, UniProt P42680)", "T7 construct": "purchased Carna Biosciences (Kobe, Japan), QuickScout service", "T7 sequence (P42680 1-631)": "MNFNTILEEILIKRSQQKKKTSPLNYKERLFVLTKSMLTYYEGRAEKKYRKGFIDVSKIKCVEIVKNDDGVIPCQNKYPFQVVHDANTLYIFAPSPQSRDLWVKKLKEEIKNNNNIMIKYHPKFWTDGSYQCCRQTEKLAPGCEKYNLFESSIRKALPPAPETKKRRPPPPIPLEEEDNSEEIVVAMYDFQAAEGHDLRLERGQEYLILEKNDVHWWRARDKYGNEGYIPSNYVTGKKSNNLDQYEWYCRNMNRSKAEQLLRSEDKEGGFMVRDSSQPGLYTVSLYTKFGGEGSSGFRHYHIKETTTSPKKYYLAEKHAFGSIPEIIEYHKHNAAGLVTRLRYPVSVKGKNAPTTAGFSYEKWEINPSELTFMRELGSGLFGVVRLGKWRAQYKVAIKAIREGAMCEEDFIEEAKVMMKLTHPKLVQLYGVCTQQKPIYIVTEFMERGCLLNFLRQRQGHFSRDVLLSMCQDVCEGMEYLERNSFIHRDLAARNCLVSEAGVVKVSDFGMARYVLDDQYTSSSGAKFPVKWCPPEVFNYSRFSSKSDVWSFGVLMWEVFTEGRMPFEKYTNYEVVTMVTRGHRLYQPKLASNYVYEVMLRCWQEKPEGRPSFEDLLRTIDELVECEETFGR", "test": "QuickScout ELISA kinase panel", "type": "biochemical", "conditions": "Compound 5 at 10 nM", "text": "as §4"}, "JAK3": {"molecular_target": "T8, JAK3 (Homo sapiens, UniProt P52333)", "T8 construct": "purchased Carna Biosciences (QuickScout service)", "test": "QuickScout ELISA kinase panel", "type": "biochemical", "conditions": "Compound 5 at 10 nM", "text": "as §4"}, "SRC": {"molecular_target": "SRC (Homo sapiens, UniProt P12931)", "sequence (P12931 whole entry)": "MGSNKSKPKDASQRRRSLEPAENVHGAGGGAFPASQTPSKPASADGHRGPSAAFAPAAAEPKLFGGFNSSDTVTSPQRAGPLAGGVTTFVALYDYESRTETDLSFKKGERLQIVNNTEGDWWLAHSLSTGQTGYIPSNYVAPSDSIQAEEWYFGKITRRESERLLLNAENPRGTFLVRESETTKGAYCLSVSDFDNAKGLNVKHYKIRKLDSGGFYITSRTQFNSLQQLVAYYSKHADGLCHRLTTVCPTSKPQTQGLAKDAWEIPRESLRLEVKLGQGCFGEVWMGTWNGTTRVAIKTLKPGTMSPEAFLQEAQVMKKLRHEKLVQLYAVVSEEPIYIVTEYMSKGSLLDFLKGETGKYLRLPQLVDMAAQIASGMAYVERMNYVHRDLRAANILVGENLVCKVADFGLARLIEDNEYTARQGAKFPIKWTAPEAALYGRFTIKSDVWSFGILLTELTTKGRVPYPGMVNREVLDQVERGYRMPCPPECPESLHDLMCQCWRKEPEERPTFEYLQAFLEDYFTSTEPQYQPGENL", "test": "biochemical", "text": "as §3"}, "TRKA": {"molecular_target": "T9, TRKA (Homo sapiens, UniProt P04629)", "T9 construct": "purchased Carna Biosciences (Kobe, Japan), QuickScout service", "test": "QuickScout ELISA kinase panel", "type": "biochemical", "conditions": "Compound 5 at 10 nM; negative = enhanced phosphorylation", "text": "as §3"}, "EGFR": {"molecular_target": "T10, EGFR (Homo sapiens, UniProt P00533)", "T10 construct": "purchased Carna Biosciences (QuickScout service)", "test": "QuickScout ELISA kinase panel", "type": "biochemical", "conditions": "Compound 5 at 10 nM", "text": "as §3"}, "SYK": {"molecular_target": "T11, SYK (Homo sapiens, UniProt P43405)", "T11 construct": "purchased Carna Biosciences (Kobe, Japan), QuickScout service", "test": "QuickScout ELISA kinase panel", "type": "biochemical", "conditions": "read-out: % Inhibition of Kinase Activity, SYK", "text": "as §3"}, "FGFR1": {"molecular_target": "T12, FGFR1 (Homo sapiens, UniProt P11362)", "T12 construct": "purchased Carna Biosciences (QuickScout service)", "test": "QuickScout ELISA kinase panel", "type": "biochemical", "conditions": "Compound 5 at 10 nM", "text": "as §3"}, "TIE2": {"molecular_target": "T13, TIE2 (Homo sapiens, UniProt Q02763)", "T13 construct": "purchased Carna Biosciences (Kobe, Japan), QuickScout service", "T13 sequence (Q02763 23-1124)": "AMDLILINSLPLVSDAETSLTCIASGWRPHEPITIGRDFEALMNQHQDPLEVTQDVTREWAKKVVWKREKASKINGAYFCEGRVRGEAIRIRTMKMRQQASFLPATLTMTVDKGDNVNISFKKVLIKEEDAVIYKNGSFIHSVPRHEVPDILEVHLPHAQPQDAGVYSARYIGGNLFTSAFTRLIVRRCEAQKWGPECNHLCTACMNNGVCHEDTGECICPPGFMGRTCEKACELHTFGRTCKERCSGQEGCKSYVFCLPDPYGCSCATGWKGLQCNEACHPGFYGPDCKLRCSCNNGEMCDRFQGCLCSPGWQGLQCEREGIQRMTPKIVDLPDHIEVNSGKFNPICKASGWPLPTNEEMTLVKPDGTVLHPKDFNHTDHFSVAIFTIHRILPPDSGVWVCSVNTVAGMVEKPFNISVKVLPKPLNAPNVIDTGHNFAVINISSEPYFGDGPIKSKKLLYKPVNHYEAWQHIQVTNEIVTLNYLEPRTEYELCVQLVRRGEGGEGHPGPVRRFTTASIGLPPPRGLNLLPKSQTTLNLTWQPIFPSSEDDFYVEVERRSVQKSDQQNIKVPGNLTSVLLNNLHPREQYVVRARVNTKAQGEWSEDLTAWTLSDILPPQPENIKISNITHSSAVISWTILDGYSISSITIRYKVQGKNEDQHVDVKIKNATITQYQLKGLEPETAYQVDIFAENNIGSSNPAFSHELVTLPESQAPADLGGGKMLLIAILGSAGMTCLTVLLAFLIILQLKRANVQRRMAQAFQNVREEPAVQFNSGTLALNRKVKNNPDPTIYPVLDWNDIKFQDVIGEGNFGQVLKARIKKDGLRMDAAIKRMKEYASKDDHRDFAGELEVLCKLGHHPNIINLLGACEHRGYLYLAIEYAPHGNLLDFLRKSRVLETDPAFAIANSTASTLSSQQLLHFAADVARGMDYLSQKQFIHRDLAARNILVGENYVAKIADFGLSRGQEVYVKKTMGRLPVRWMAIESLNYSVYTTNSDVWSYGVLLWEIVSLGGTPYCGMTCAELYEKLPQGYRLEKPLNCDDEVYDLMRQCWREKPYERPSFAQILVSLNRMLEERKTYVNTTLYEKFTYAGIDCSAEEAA", "test": "QuickScout ELISA kinase panel", "type": "biochemical", "conditions": "Compound 5 at 10 nM; negative = enhanced phosphorylation", "text": "as §3"}, "IGF1R": {"molecular_target": "T14, IGF1R (Homo sapiens, UniProt P08069)", "T14 construct": "purchased Carna Biosciences (QuickScout service)", "test": "QuickScout ELISA kinase panel", "type": "biochemical", "conditions": "Compound 5 at 10 nM", "text": "as §3"}, "FAK": {"molecular_target": "T15, FAK (Homo sapiens, UniProt Q05397)", "T15 construct": "purchased Carna Biosciences (QuickScout service)", "test": "QuickScout ELISA kinase panel", "type": "biochemical", "conditions": "read-out: % Inhibition of Kinase Activity, FAK", "text": "as §3"}, "KIT": {"molecular_target": "T16, KIT (Homo sapiens, UniProt P10721)", "T16 construct": "purchased Carna Biosciences (Kobe, Japan), QuickScout service", "T16 sequence (P10721 26-976)": "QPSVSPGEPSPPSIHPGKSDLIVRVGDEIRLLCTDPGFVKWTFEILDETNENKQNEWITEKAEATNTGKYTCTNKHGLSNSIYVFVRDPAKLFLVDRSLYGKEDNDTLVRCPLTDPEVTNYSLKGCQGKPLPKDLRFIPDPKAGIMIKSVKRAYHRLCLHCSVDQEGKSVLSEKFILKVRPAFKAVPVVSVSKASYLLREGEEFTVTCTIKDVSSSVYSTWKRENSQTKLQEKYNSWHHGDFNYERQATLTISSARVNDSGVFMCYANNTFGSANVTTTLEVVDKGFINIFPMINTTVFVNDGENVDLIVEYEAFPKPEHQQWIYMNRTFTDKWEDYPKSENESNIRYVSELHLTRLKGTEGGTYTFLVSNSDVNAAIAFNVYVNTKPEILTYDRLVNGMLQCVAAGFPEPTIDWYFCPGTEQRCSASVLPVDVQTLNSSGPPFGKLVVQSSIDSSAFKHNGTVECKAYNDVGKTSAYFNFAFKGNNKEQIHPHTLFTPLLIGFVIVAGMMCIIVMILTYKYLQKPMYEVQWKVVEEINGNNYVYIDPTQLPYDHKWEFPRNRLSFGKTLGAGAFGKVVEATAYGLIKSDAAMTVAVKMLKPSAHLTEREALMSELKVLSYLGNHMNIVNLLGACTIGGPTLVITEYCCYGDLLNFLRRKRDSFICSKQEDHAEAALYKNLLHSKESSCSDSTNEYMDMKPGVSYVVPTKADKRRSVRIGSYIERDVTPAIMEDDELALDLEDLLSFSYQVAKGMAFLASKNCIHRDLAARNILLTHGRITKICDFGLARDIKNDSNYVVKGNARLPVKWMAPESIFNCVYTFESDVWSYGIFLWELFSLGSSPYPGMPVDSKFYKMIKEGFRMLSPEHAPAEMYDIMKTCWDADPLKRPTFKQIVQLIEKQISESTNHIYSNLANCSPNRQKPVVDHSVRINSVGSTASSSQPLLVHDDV", "test": "QuickScout ELISA kinase panel", "type": "biochemical", "text": "as §3"}, "KDR": {"molecular_target": "T17, KDR (Homo sapiens, UniProt P35968)", "T17 construct": "purchased Carna Biosciences (Kobe, Japan), QuickScout service", "T17 sequence (P35968 20-1356)": "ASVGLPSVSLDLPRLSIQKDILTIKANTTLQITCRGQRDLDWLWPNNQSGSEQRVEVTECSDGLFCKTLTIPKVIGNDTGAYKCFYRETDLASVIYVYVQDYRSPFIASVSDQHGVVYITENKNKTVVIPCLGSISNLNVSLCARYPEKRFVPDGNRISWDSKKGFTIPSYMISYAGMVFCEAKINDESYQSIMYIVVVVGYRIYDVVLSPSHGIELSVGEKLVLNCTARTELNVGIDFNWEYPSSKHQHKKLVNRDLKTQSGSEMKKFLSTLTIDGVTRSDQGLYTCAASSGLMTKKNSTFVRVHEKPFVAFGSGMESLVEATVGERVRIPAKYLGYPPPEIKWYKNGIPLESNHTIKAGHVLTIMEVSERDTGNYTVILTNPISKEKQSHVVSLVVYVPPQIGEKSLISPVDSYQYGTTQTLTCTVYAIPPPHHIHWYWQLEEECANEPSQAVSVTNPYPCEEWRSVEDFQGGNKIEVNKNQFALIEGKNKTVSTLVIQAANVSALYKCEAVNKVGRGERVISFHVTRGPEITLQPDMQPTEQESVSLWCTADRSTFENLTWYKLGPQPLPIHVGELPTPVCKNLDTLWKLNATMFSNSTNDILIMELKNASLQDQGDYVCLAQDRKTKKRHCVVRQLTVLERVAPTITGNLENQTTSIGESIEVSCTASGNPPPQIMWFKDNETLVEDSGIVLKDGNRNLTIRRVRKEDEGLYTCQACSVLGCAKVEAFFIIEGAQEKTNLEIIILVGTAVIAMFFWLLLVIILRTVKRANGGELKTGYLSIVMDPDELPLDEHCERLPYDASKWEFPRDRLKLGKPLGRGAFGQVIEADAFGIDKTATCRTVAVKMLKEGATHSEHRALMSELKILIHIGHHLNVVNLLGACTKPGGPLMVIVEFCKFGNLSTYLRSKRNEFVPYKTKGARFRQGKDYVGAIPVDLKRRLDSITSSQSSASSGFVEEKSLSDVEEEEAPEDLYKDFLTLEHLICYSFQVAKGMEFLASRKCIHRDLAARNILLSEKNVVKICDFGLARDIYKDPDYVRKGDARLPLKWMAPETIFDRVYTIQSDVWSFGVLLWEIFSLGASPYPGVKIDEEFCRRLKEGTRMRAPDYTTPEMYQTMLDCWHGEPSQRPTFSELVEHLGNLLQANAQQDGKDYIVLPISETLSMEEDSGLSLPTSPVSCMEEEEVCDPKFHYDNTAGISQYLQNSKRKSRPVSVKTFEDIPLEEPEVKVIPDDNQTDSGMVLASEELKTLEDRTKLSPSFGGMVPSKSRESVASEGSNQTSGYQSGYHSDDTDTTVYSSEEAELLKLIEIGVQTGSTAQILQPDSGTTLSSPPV", "test": "QuickScout ELISA kinase panel", "type": "biochemical", "conditions": "Compound 5 at 10 nM; negative = enhanced phosphorylation", "text": "as §3"}, "[2]": {"conditions": "0.1 mg/kg i.v., 14 days, average, same in control group"}}, "data": [{"compound": "Cc1nc(Nc2ncc(C(=O)Nc3c(C)cccc3Cl)s2)cc(N2CCN(CCF)CC2)n1", "note": "[Compound 5, N-(2-Chloro-6-methylphenyl)-2-(6-(4-(2-fluoroethyl)piperazin-1-yl)-2-methylpyrimidin-4-ylamino)thiazole-5-carboxamide]", "values": [{"measurement": "body weight gain, female mice", "setting": "B6D2F1 mice; [2]", "value": 0.5, "unit": "g"}, {"measurement": "body weight gain, male mice", "setting": "B6D2F1 mice; [2]", "value": 1.8, "unit": "g"}, {"measurement": "toxicity in mice", "setting": "B6D2F1 mice", "value": "has not shown toxicity"}, {"measurement": "toxicity in mice", "setting": "B6D2F1 mice; listed as fluoro derivative 5", "value": "safe and nontoxic"}, {"measurement": "IC50", "setting": "K562 cells", "value": 1.1, "unit": "nM"}, {"measurement": "IC50", "setting": "[1]", "value": 0.1, "unit": "nM"}, {"measurement": "IC50", "setting": "ABL", "value": "< 2", "unit": "nM"}, {"measurement": "inhibition at 0.01 µM", "setting": "ABL; Compound 5 at 10 nM", "value": "> 97", "unit": "%"}, {"measurement": "% Inhibition of Kinase Activity, ABL", "setting": "ABL; Compound 5 at 10 nM, 0.01 µM", "value": 99.4, "unit": "%"}, {"measurement": "inhibition at 0.01 µM", "setting": "EphB4", "value": 97, "unit": "%"}, {"measurement": "inhibition at 0.01 µM", "setting": "FLT3", "value": 0.3, "unit": "%"}, {"measurement": "inhibition at 0.01 µM", "setting": "MET", "value": 7.2, "unit": "%"}, {"measurement": "inhibition at 0.01 µM", "setting": "ACK", "value": 83.1, "unit": "%"}, {"measurement": "inhibition at 0.01 µM", "setting": "TYRO3", "value": 23.1, "unit": "%"}, {"measurement": "inhibition at 0.01 µM", "setting": "CSK", "value": 95.2, "unit": "%"}, {"measurement": "inhibition at 0.01 µM", "setting": "TEC", "value": 98.1, "unit": "%"}, {"measurement": "inhibition at 0.01 µM", "setting": "JAK3", "value": 16, "unit": "%"}, {"measurement": "IC50", "setting": "SRC", "value": "< 2", "unit": "nM"}, {"measurement": "% Inhibition of Kinase Activity, SRC", "setting": "SRC; Compound 5 at 10 nM, 0.01 µM", "value": 97.5, "unit": "%"}, {"measurement": "inhibition at 0.01 µM", "setting": "SRC; read-out: % Inhibition of Kinase Activity, SRC, Compound 5 at 10 nM", "value": "> 97", "unit": "%"}, {"measurement": "inhibition at 0.01 µM", "setting": "TRKA", "value": -0.9, "unit": "%"}, {"measurement": "inhibition at 0.01 µM", "setting": "EGFR", "value": 27.2, "unit": "%"}, {"measurement": "inhibition at 0.01 µM", "setting": "SYK", "value": 4.5, "unit": "%"}, {"measurement": "inhibition at 0.01 µM", "setting": "FGFR1", "value": 20.4, "unit": "%"}, {"measurement": "inhibition at 0.01 µM", "setting": "TIE2", "value": -51.7, "unit": "%"}, {"measurement": "inhibition at 0.01 µM", "setting": "IGF1R", "value": 5.9, "unit": "%"}, {"measurement": "inhibition at 0.01 µM", "setting": "FAK", "value": -18.3, "unit": "%"}, {"measurement": "IC50", "setting": "KIT", "value": "< 2", "unit": "nM"}, {"measurement": "inhibition at 0.01 µM", "setting": "KIT; Compound 5 at 10 nM", "value": "> 97", "unit": "%"}, {"measurement": "% Inhibition of Kinase Activity, KIT", "setting": "KIT; Compound 5 at 10 nM, 0.01 µM", "value": 98.7, "unit": "%"}, {"measurement": "inhibition at 0.01 µM", "setting": "KDR", "value": -5.6, "unit": "%"}]}]}
